Measured values taken from patent US20190031667A1, “PESTICIDALLY ACTIVE HETEROCYCLIC DERIVATIVES WITH SULPHUR CONTAINING SUBSTITUENTS” (SYNGENTA PARTICIPATIONS AG, priority 2016, published 2019).

What was measured:
Format in all cases: in vivo
[1] = tested on: Bemisia tabaci (Cotton White Fly); experiment: Example B7: Activity against Bemisia tabaci, sprayed cotton leaf discs; conditions: foliar, 144 h, application rate 200 ppm, adult white flies, 6 days after incubation
Description: Example B7: Activity Against Bemisia tabaci (Cotton White Fly)
Cotton leaf discs were placed onto agar in 24-well microtiter plates and sprayed with aqueous test solutions prepared from 10′000 ppm DMSO stock solutions. After drying the leaf discs were infested with adult white flies. The samples were checked for mortality 6 days after incubation.

[2] = tested on: Diabrotica Balteata (Corn Root Worm); experiment: Example B4: Activity against Diabrotica balteata, sprayed maize sprouts; conditions: 96 h, application rate 200 ppm, L2 larvae, 4 days after infestation, read-out: effect in at least one of the two categories (mortality or growth inhibition)
Description: Example B4: Activity Against Diabrotica Balteata (Corn Root Worm)
Maize sprouts, placed onto an agar layer in 24-well microtiter plates were treated with aqueous test solutions prepared from 10′000 ppm DMSO stock solutions by spraying. After drying, the plates were infested with L2 larvae (6 to 10 per well). The samples were assessed for mortality and growth inhibition in comparison to untreated samples 4 days after infestation.

[3] = tested on: Myzus persicae (Green Peach Aphid); experiment: Example B5: Activity against Myzus persicae, sprayed sunflower leaf discs; conditions: foliar, 144 h, application rate 200 ppm, mixed-age aphids, 6 days after infestation
Description: Example B5: Activity Against Myzus persicae (Green Peach Aphid)
Sunflower leaf discs were placed onto agar in a 24-well microtiter plate and sprayed with aqueous test solutions prepared from 10′000 ppm DMSO stock solutions. After drying, the leaf discs were infested with an aphid population of mixed ages. The samples were assessed for mortality 6 days after infestation.

[4] = tested on: Spodoptera littoralis (Egyptian cotton leaf worm); experiment: Example B2: Activity against Spodoptera littoralis, systemic via lettuce roots in agar; conditions: 144 h, test rate 12.5 ppm, uptake by lettuce roots from agar, 6 days after infestation, read-out: effect in at least one of the three categories (mortality, anti-feeding, or growth inhibition)
Excerpt: Example B2: Activity against Spodoptera littoralis (Egyptian cotton leaf worm) Test compounds were applied by pipette from 10′000 ppm DMSO stock solutions into 24-well plates and mixed with agar. Lettuce seeds were placed onto the agar and the multi well plate was closed by another plate which contained also agar. After 7 days the compound was absorbed by the roots and the lettuce grew into the lid plate. The lettuce leaves were then cut off into the lid plate. Spodoptera eggs were pipetted through a plastic stencil onto a humid gel blotting paper and the lid plate was closed with it. The samples were assessed for mortality, anti-feedant effect and growth inhibition in comparison to untreated samples 6 days after infestation.

[5] = tested on: Euschistus heros (Neotropical Brown Stink Bug); experiment: Example B8: Activity against Euschistus heros, sprayed soybean leaves; conditions: 120 h, application rate 200 ppm, N2 nymphs, 5 days after infestation, read-out: effect in at least one of the two categories (mortality or growth inhibition)
Description: Example B8: Activity Against Euschistus heros (Neotropical Brown Stink Bug)
Soybean leaves on agar in 24-well microtiter plates were sprayed with aqueous test solutions prepared from 10′000 ppm DMSO stock solutions. After drying the leaves were infested with N2 nymphs. The samples were assessed for mortality and growth inhibition in comparison to untreated samples 5 days after infestation.

[6] = tested on: Spodoptera littoralis (Egyptian cotton leaf worm); experiment: Example B1: Activity against Spodoptera littoralis, sprayed cotton leaf discs; conditions: foliar, 72 h, application rate 200 ppm, L1 larvae, 3 days after infestation
Description: Example B1: Activity against Spodoptera littoralis (Egyptian cotton leaf worm) Cotton leaf discs were placed onto agar in 24-well microtiter plates and sprayed with aqueous test solutions prepared from 10′000 ppm DMSO stock solutions. After drying the leaf discs were infested with five L1 larvae. The samples were assessed for mortality, anti-feeding effect, and growth inhibition in comparison to untreated samples 3 days after infestation. Control of Spodoptera littoralis by a test sample is given when at least one of the categories mortality, anti-feedant effect, and growth inhibition is higher than the untreated sample.

[7] = tested on: Plutella xylostella (Diamond Back Moth); experiment: Example B3: Activity against Plutella xylostella, artificial diet; conditions: 120 h, application rate 200 ppm, L2 larvae, 5 days after infestation, read-out: effect in at least one of the two categories (mortality or growth inhibition)
Description: Example B3: Activity Against Plutella xylostella (Diamond Back Moth)
24-well microtiter plates with artificial diet were treated with aqueous test solutions prepared from 10′000 ppm DMSO stock solutions by pipetting. After drying, the plates were infested with L2 larvae (10 to 15 per well). The samples were assessed for mortality and growth inhibition in comparison to untreated samples 5 days after infestation.

[8] = tested on: Myzus persicae (Green Peach Aphid); experiment: Example B6: Activity against Myzus persicae, systemic via pea seedling roots; conditions: 144 h, test rate 24 ppm, roots of infested pea seedlings in test solution, 6 days
Description: Example B6: Activity Against Myzus persicae (Green Peach Aphid)
Roots of pea seedlings infested with an aphid population of mixed ages were placed directly in the aqueous test solutions prepared from 10′000 DMSO stock solutions. The samples were assessed for mortality 6 days after placing seedlings in test solutions.

CCS(=O)(=O)c1ccc(-n2cccn2)nc1-n1nc2cc(C(F)(F)F)ncc2c1Cl [Compound P11]
≥ 80%: mortality at 200 ppm [1]

CCS(=O)(=O)c1ccc(N)nc1-n1cc2cnc(C(F)(F)F)cc2n1 [Compound P16, 5-ethylsulfonyl-6-[6-(trifluoromethyl)pyrazolo[4,3-c]pyridin-2-yl]pyridin-2-amine]
≥ 80%: percent effect (mortality or growth inhibition) at 200 ppm [2] | mortality at 200 ppm [3] | percent effect (mortality, anti-feeding or growth inhibition) at 12.5 ppm [4] | percent effect (mortality or growth inhibition) at 200 ppm [5] | percent control (mortality, anti-feedant effect or growth inhibition) at 200 ppm [6] | percent effect (mortality or growth inhibition) at 200 ppm [7] | mortality at 24 ppm [8]

CCS(=O)(=O)c1cc(Cl)c(N)nc1-n1cc2cnc(C(F)(F)F)cc2n1 [Compound P19, 3-chloro-5-ethylsulfonyl-6-[6-(trifluoromethyl)pyrazolo[4,3-c]pyridin-2-yl]pyridin-2-amine]
≥ 80%: percent effect (mortality or growth inhibition) at 200 ppm [2] | mortality at 200 ppm [3] | percent effect (mortality, anti-feeding or growth inhibition) at 12.5 ppm [4] | percent effect (mortality or growth inhibition) at 200 ppm [5] | percent control (mortality, anti-feedant effect or growth inhibition) at 200 ppm [6] | percent effect (mortality or growth inhibition) at 200 ppm [7]

CCS(=O)(=O)c1ccc(-n2cnc(Cl)n2)nc1-n1cc2cnc(C(F)(F)F)cc2n1 [Compound P25]
≥ 80%: percent effect (mortality or growth inhibition) at 200 ppm [2] | mortality at 200 ppm [3] | percent effect (mortality or growth inhibition) at 200 ppm [5] | mortality at 200 ppm [1] | percent control (mortality, anti-feedant effect or growth inhibition) at 200 ppm [6] | percent effect (mortality or growth inhibition) at 200 ppm [7]
